The CheMixHub viscosity set

Assay: xn = mol fraction of the nth substance listed

CS(C)=O + CCCCCCO
101 kPa
Conditions | viscosity [mPa·s]
303.15 K, x1 = 0.1678 | 2.991
303.15 K, x1 = 0.1907 | 2.831
303.15 K, x1 = 0.3273 | 2.582
303.15 K, x1 = 0.3639 | 2.288
303.15 K, x1 = 0.4458 | 2.342
303.15 K, x1 = 0.522 | 2.088
303.15 K, x1 = 0.5483 | 2.171
303.15 K, x1 = 0.64 | 2.061
303.15 K, x1 = 0.6669 | 1.898
303.15 K, x1 = 0.7228 | 1.983
303.15 K, x1 = 0.8002 | 1.739
303.15 K, x1 = 0.8098 | 1.901
303.15 K, x1 = 0.8795 | 1.827
303.15 K, x1 = 0.9231 | 1.722
303.15 K, x1 = 0.9413 | 1.754
313 K, x1 = 0.1163 | 2.459
313 K, x1 = 0.203 | 2.239
313 K, x1 = 0.4013 | 1.891
313 K, x1 = 0.4964 | 1.793
313 K, x1 = 0.5978 | 1.719
313 K, x1 = 0.6873 | 1.666
313 K, x1 = 0.7968 | 1.593
313 K, x1 = 0.9124 | 1.574

CCCCC(=O)OCC + CCCCCO
viscosity [mPa·s], 101.33 kPa
Conditions | x1 = 0.1037 | x1 = 0.1921 | x1 = 0.3001 | x1 = 0.4089 | x1 = 0.5015 | x1 = 0.6062 | x1 = 0.7081 | x1 = 0.8013 | x1 = 0.9029
293.15 K | 3.302 | 2.761 | 2.241 | 1.841 | 1.575 | 1.34 | 1.163 | 1.036 | 0.927
303.15 K | 2.379 | 2.008 | 1.651 | 1.377 | 1.195 | 1.033 | 0.912 | 0.825 | 0.749
313.15 K | 1.887 | 1.61 | 1.344 | 1.139 | 1.004 | 0.884 | 0.793 | 0.728 | 0.672

CC(C)=CC(=O)C=C(C)C + CCCCCOC(C)=O
298.15 K, 101 kPa
Conditions | viscosity [mPa·s]
x1 = 0.078 | 0.813
x1 = 0.142 | 0.834

CCCCC + CCCCCl
298 K, 101.3 kPa
Conditions | viscosity [mPa·s]
x1 = 0.1016 | 0.4004
x1 = 0.2097 | 0.372
x1 = 0.2358 | 0.3641
x1 = 0.403 | 0.3274
x1 = 0.5062 | 0.3054
x1 = 0.6042 | 0.287
x1 = 0.7007 | 0.2701
x1 = 0.7975 | 0.2558
x1 = 0.8963 | 0.2391

CC(=O)O.NCCO + CCCCO
298.15 K, 101.3 kPa
Conditions | viscosity [mPa·s]
x2 = 0.088 | 1548
x2 = 0.179 | 734.1
x2 = 0.272 | 460.3
x2 = 0.369 | 325.3
x2 = 0.476 | 190.3
x2 = 0.574 | 74.63
x2 = 0.666 | 30.51
x2 = 0.776 | 19.04
x2 = 0.881 | 14.02

CCCCC + CCCCO
298.15 K, 101 kPa
Conditions | viscosity [mPa·s]
x2 = 0.1233 | 0.258
x2 = 0.2435 | 0.319
x2 = 0.4175 | 0.481
x2 = 0.4935 | 0.609
x2 = 0.5883 | 0.809
x2 = 0.6892 | 1.042
x2 = 0.7941 | 1.44
x2 = 0.869 | 1.832

CCCCCCCCn1cc[n+](C)c1.O=[N+]([O-])[O-] + CCCCO
Conditions | viscosity [mPa·s]
293.15 K, 101 kPa, x2 = 0.168 | 378.7

CCCCCCCO + CCCCO
viscosity [mPa·s], 101 kPa
Conditions | 298.15 K | 308.15 K | 318.15 K
x2 = 0.08 | 5.586 | 4.11 | 3.063
x2 = 0.15 | 5.398 | 3.965 | 2.971
x2 = 0.22 | 5.211 | 3.829 | 2.883
x2 = 0.28 | 5.027 | 3.7 | 2.798
x2 = 0.34 | 4.844 | 3.576 | 2.714
x2 = 0.4 | 4.664 | 3.456 | 2.632
x2 = 0.46 | 4.487 | 3.34 | 2.551
x2 = 0.51 | 4.313 | 3.226 | 2.47
x2 = 0.56 | 4.142 | 3.115 | 2.391
x2 = 0.61 | 3.976 | 3.004 | 2.312
x2 = 0.66 | 3.813 | 2.894 | 2.233
x2 = 0.7 | 3.654 | 2.785 | 2.155
x2 = 0.74 | 3.499 | 2.677 | 2.077
x2 = 0.79 | 3.348 | 2.57 | 2
x2 = 0.82 | 3.201 | 2.463 | 1.923
x2 = 0.86 | 3.058 | 2.359 | 1.847
x2 = 0.9 | 2.919 | 2.256 | 1.772
x2 = 0.93 | 2.783 | 2.157 | 1.698
x2 = 0.97 | 2.652 | 2.061 | 1.627

CS(C)=O + CCCCO
viscosity [mPa·s]
Conditions | 298.15 K | 303.15 K
101 kPa, x1 = 0.09862 | – | 1.847
101 kPa, x1 = 0.1941 | – | 1.698
101 kPa, x1 = 0.2035 | – | 1.685
101 kPa, x1 = 0.3043 | – | 1.581
101 kPa, x1 = 0.3691 | – | 1.528
101 kPa, x1 = 0.3883 | – | 1.55
101 kPa, x1 = 0.4941 | – | 1.534
101 kPa, x1 = 0.5276 | – | 1.497
101 kPa, x1 = 0.5875 | – | 1.564
101 kPa, x1 = 0.6718 | – | 1.506
101 kPa, x1 = 0.6844 | – | 1.605
101 kPa, x1 = 0.803 | – | 1.636
101 kPa, x1 = 0.8037 | – | 1.543
101 kPa, x1 = 0.9005 | – | 1.682
101 kPa, x1 = 0.9297 | – | 1.672
101.3 kPa, x1 = 0.0944 | 2.225 | 1.97
101.3 kPa, x1 = 0.192 | 2.017 | 1.848
101.3 kPa, x1 = 0.2893 | 1.88 | 1.671
101.3 kPa, x1 = 0.3876 | 1.78 | 1.604
101.3 kPa, x1 = 0.4688 | 1.773 | 1.59
101.3 kPa, x1 = 0.5874 | 1.77 | 1.599
101.3 kPa, x1 = 0.6887 | 1.796 | 1.625
101.3 kPa, x1 = 0.7915 | 1.859 | 1.668
101.3 kPa, x1 = 0.8839 | 1.905 | 1.723
